Assay results reported in PubChem BioAssay AID330 (DTP/NCI, 2004).
“And” between values parts separate entries of the source, which are not always exact repeats. Identical values can stand only once. Toxic doses and inconclusive results are not listed.

System: P388 leukemia ip, CD2F1 mice, survival T/C
Assay: NCI In Vivo Anticancer Drug Screen. Data for tumor model P388 Leukemia (intraperitoneal) in CD2F1 (CDF1) mice
Conditions: endpoint: median survival time, higher = longer survival
In short: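 Mice carrying the transplanted tumor received test compound or vehicle. Survival was recorded in each group, and the value is the treated-group measurement divided by that of the vehicle-treated control group.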

[1] = dose: 100.0 mg/kg/injection, schedule: Q01DX001 (ip), vehicle: saline with Tween-80
[2] = dose: 200.0 mg/kg/injection, schedule: Q01DX001 (ip), vehicle: saline with Tween-80
[3] = dose: 100.0 mg/kg/injection, schedule: Q01DX001 (ip), vehicle: Klucel (hydroxypropylcellulose) (HPC)
[4] = dose: 200.0 mg/kg/injection, schedule: Q01DX001 (ip), vehicle: Klucel (hydroxypropylcellulose) (HPC)
[5] = dose: 400.0 mg/kg/injection, schedule: Q01DX001 (ip), vehicle: Klucel (hydroxypropylcellulose) (HPC)
[6] = dose: 100.0 mg/kg/injection, schedule: Q01DX009 (ip), vehicle: saline with Tween-80
[7] = dose: 100.0 mg/kg/injection, schedule: Q04DX003 (ip), vehicle: saline with Tween-80
[8] = dose: 60.0 mg/kg/injection, schedule: Q01DX005 (ip), vehicle: saline
[9] = dose: 120.0 mg/kg/injection, schedule: Q01DX005 (ip), vehicle: saline
[10] = dose: 50.0 mg/kg/injection, schedule: Q01DX005 (ip), vehicle: Klucel (hydroxypropylcellulose) (HPC)
[11] = dose: 100.0 mg/kg/injection, schedule: Q01DX005 (ip), vehicle: Klucel (hydroxypropylcellulose) (HPC)
[12] = dose: 200.0 mg/kg/injection, schedule: Q01DX005 (ip), vehicle: Klucel (hydroxypropylcellulose) (HPC)
[13] = dose: 60.0 mg/kg/injection, schedule: Q01DX005 (ip), vehicle: saline with Tween-80
[14] = dose: 120.0 mg/kg/injection, schedule: Q01DX005 (ip), vehicle: saline with Tween-80
[15] = dose: 240.0 mg/kg/injection, schedule: Q01DX005 (ip), vehicle: saline with Tween-80
[16] = dose: 50.0 mg/kg/injection, schedule: Q01DX005 (ip), vehicle: saline with Tween-80
[17] = dose: 100.0 mg/kg/injection, schedule: Q01DX005 (ip), vehicle: saline with Tween-80
[18] = dose: 50.0 mg/kg/injection, schedule: Q01DX009 (ip), vehicle: saline
[19] = dose: 100.0 mg/kg/injection, schedule: Q01DX009 (ip), vehicle: saline
[20] = dose: 200.0 mg/kg/injection, schedule: Q01DX009 (ip), vehicle: saline
[21] = dose: 50.0 mg/kg/injection, schedule: Q01DX009 (ip), vehicle: saline with Tween-80
[22] = dose: 100.0 mg/kg/injection, schedule: Q04DX003 (ip), vehicle: Klucel (hydroxypropylcellulose) (HPC)
[23] = dose: 200.0 mg/kg/injection, schedule: Q04DX003 (ip), vehicle: Klucel (hydroxypropylcellulose) (HPC)
[24] = dose: 400.0 mg/kg/injection, schedule: Q04DX003 (ip), vehicle: Klucel (hydroxypropylcellulose) (HPC)
[25] = dose: 200.0 mg/kg/injection, schedule: Q04DX003 (ip), vehicle: saline with Tween-80
[26] = dose: 400.0 mg/kg/injection, schedule: Q04DX003 (ip), vehicle: saline with Tween-80

O=C1C=CC2(CC=CCC2)CC1 (configuration not stated)
T/C (dose: 6.25 mg/kg/injection, schedule: Q01DX009 (ip), vehicle: Klucel (hydroxypropylcellulose) (HPC)): 110 % of control | T/C (dose: 12.5 mg/kg/injection, schedule: Q01DX008 (ip), vehicle: Klucel (hydroxypropylcellulose) (HPC)): 101 % of control | T/C (dose: 12.5 mg/kg/injection, schedule: Q01DX009 (ip), vehicle: Klucel (hydroxypropylcellulose) (HPC)): 108 % of control | T/C (dose: 25.0 mg/kg/injection, schedule: Q01DX008 (ip), vehicle: Klucel (hydroxypropylcellulose) (HPC)): 100 % of control | T/C (dose: 25.0 mg/kg/injection, schedule: Q01DX009 (ip), vehicle: Klucel (hydroxypropylcellulose) (HPC)): 100 % of control | T/C (dose: 50.0 mg/kg/injection, schedule: Q01DX009 (ip), vehicle: Klucel (hydroxypropylcellulose) (HPC)): 121 % of control | T/C (dose: 100.0 mg/kg/injection, schedule: Q01DX009 (ip), vehicle: Klucel (hydroxypropylcellulose) (HPC)): 109 % of control | T/C (dose: 200.0 mg/kg/injection, schedule: Q01DX009 (ip), vehicle: Klucel (hydroxypropylcellulose) (HPC)): 110 % of control

O/N=C\c1ccccc1P(c1ccccc1/C=N\O)c1ccccc1/C=N\O
T/C [1]: 87 % of control | T/C [2]: 89 % of control

CC1(C)CC(OP(=O)(OC2CC(C)(C)N(O)C(C)(C)C2)N2CC2)CC(C)(C)N1O
T/C [3]: 100 % of control | T/C [4]: 97 % of control | T/C [5]: 104 % of control

O=P(OCc1ccccc1)(N(CCCl)CCCl)N1CCN(P(=O)(OCc2ccccc2)N(CCCl)CCCl)CC1 (configuration not stated)
T/C [6]: 150 % of control | T/C [7]: 116 % of control

CC(C)CC(NC(=O)C(Cc1ccccc1)NC(=O)OCCc1ccccn1)C(=O)OC(C)(C)C (configuration not stated)
T/C [8]: 101 % of control | T/C [9]: 95 % of control | T/C (dose: 240.0 mg/kg/injection, schedule: Q01DX005 (ip), vehicle: saline): 87 % of control

Cc1cc(=O)oc2cc3oc4c(c3cc12)CCCC4
T/C [10]: 97 % of control | T/C [11]: 92 % of control | T/C [12]: 88 % of control

NC(=O)C(=O)NNC(=O)CCn1[nH]c(=O)c(Cl)c(Cl)c1=O
T/C [13]: 100 % of control | T/C [14]: 103 % of control | T/C [15]: 98 % of control

CCN(CC)CCCNc1cccc2c(SCc3ccccc3)ccnc12
T/C [16]: 112 % of control | T/C [17]: 102 % of control

CNC(=O)OCc1c(COC(=O)NC)c(-c2cc(F)ccc2F)n2c1CCC2
T/C (dose: 12.5 mg/kg/injection, schedule: Q01DX009 (ip), vehicle: distilled water + Tween-80): 151 % of control | T/C (dose: 25.0 mg/kg/injection, schedule: Q01DX009 (ip), vehicle: distilled water + Tween-80): 155 % of control and 156 % of control

CCCCCCCCCCCCCCCn1nnnc1N
T/C [16]: 86 % of control | T/C [17]: 91 % of control | T/C (dose: 200.0 mg/kg/injection, schedule: Q01DX005 (ip), vehicle: saline with Tween-80): 96 % of control

O=C(O)CN1CC(=O)N(c2ccccc2)C1=S
T/C [18]: 101 % of control | T/C [19]: 97 % of control | T/C [20]: 93 % of control

N#C/C(=C\c1ccccc1Cl)C(N)=S
T/C [18]: 100 % of control | T/C [19]: 101 % of control | T/C [20]: 97 % of control

CCN1c2ccccc2CC(CCN(C)Cc2ccccc2)(C(N)=O)c2ccccc21 (configuration not stated)
T/C (dose: 12.5 mg/kg/injection, schedule: Q01DX009 (ip), vehicle: saline with Tween-80): 92 % of control | T/C (dose: 25.0 mg/kg/injection, schedule: Q01DX009 (ip), vehicle: saline with Tween-80): 99 % of control | T/C [21]: 100 % of control

Cc1cccc(/C=C/C(=O)C(C)CN(C)C)c1 (configuration not stated)
T/C (dose: 15.0 mg/kg/injection, schedule: Q01DX005 (ip), vehicle: saline): 98 % of control | T/C (dose: 30.0 mg/kg/injection, schedule: Q01DX005 (ip), vehicle: saline): 105 % of control | T/C [8]: 107 % of control and 116 % of control

Cc1ccc2c(=O)n3cc(CCC#N)cc3c(=O)[nH]c2c1O
T/C [3]: 99 % of control | T/C [4]: 89 % of control | T/C [5]: 92 % of control

CCCCCCCCCCCCCCCCSC1=CC(=O)C(Cl)=C(Cl)C1=O
T/C (dose: 10.0 mg/kg/injection, schedule: Q01DX009 (ip), vehicle: Klucel (hydroxypropylcellulose) (HPC)): 96 % of control | T/C (dose: 20.0 mg/kg/injection, schedule: Q01DX009 (ip), vehicle: Klucel (hydroxypropylcellulose) (HPC)): 96 % of control | T/C (dose: 40.0 mg/kg/injection, schedule: Q01DX009 (ip), vehicle: Klucel (hydroxypropylcellulose) (HPC)): 95 % of control

CN(C)CCN(Cc1ccco1)c1ccccn1
T/C (dose: 12.5 mg/kg/injection, schedule: Q01DX005 (ip), vehicle: saline with Tween-80): 92 % of control | T/C (dose: 12.5 mg/kg/injection, schedule: Q01DX005 (ip), vehicle: saline): 96 % of control and 98 % of control | T/C (dose: 25.0 mg/kg/injection, schedule: Q01DX005 (ip), vehicle: saline with Tween-80): 100 % of control | T/C (dose: 25.0 mg/kg/injection, schedule: Q01DX005 (ip), vehicle: saline): 96 % of control and 99 % of control | T/C (dose: 50.0 mg/kg/injection, schedule: Q01DX005 (ip), vehicle: saline): 102 % of control [middle of 4 runs]

Cc1ccc(S(=O)(=O)N/N=C/c2ccsc2)cc1
T/C [22]: 92 % of control | T/C [23]: 106 % of control | T/C [24]: 100 % of control

NC(=O)CC1(C(=O)O)c2ccccc2-c2ccccc21
T/C [7]: 97 % of control | T/C [25]: 97 % of control | T/C [26]: 108 % of control

C=C(C)C(O)CCCO[Si](c1ccccc1)(c1ccccc1)C(C)(C)C (configuration not stated)
T/C [13]: 94 % of control | T/C [14]: 95 % of control | T/C [15]: 97 % of control

COc1cccc2sc(-c3ccccc3)cc(=O)c12
T/C [10]: 93 % of control | T/C [11]: 93 % of control | T/C [12]: 96 % of control

CC(=O)c1ccc(N(C)C(=O)C(Cl)Cl)cc1
T/C [22]: 100 % of control | T/C [23]: 100 % of control | T/C [24]: 100 % of control

S=C(SSC(=S)Sc1ccccc1)Sc1ccccc1
T/C (dose: 100.0 mg/kg/injection, schedule: Q04DX002 (ip), vehicle: Klucel (hydroxypropylcellulose) (HPC)): 112 % of control | T/C (dose: 200.0 mg/kg/injection, schedule: Q04DX002 (ip), vehicle: Klucel (hydroxypropylcellulose) (HPC)): 107 % of control | T/C (dose: 400.0 mg/kg/injection, schedule: Q04DX002 (ip), vehicle: Klucel (hydroxypropylcellulose) (HPC)): 102 % of control

CN(/C=C1\CCCCC1=O)c1ccccc1
T/C [21]: 98 % of control | T/C [6]: 102 % of control | T/C (dose: 200.0 mg/kg/injection, schedule: Q01DX009 (ip), vehicle: saline with Tween-80): 113 % of control

O=c1c2sc3ccccc3c2ncn1CN1CCOCC1
T/C [10]: 112 % of control | T/C [11]: 121 % of control | T/C [12]: 118 % of control

CCCCC[C@@H]1CC=C[C@@H](NC(=O)OCc2ccccc2)[C@H]1/C=C/C(=O)CCCCC1OCCO1
T/C (dose: 60.0 mg/kg/injection, schedule: Q01DX005 (ip), vehicle: DMSO): 101 % of control | T/C (dose: 120.0 mg/kg/injection, schedule: Q01DX005 (ip), vehicle: DMSO): 93 % of control | T/C (dose: 240.0 mg/kg/injection, schedule: Q01DX005 (ip), vehicle: DMSO): 98 % of control

OC(Cc1cnc2ccccc2n1)(C(F)(F)F)C(F)(F)F
T/C [7]: 109 % of control | T/C [25]: 95 % of control | T/C [26]: 90 % of control

CN(C)CCCN=C(N)CSP(=O)(O)O
T/C [8]: 98 % of control | T/C [9]: 104 % of control

CCn1c2ccccc2c2c3ncc4cccn4c3ccc21
T/C [13]: 94 % of control | T/C [14]: 98 % of control | T/C [15]: 106 % of control

CC(C)C1=CCC2C(=C1)CCC1C(C)(C(N)=O)CCCC21C (configuration not stated)
T/C [1]: 100 % of control | T/C [2]: 100 % of control | T/C (dose: 400.0 mg/kg/injection, schedule: Q01DX001 (ip), vehicle: saline with Tween-80): 100 % of control
